Reference: ChEMBL document CHEMBL1143016, “Scutiaquinones A and B, perylenequinones from the roots of Scutia myrtina with anthelmintic activity” (J Nat Prod, 2007)
Values after ≈ are worked out from the molar mass of the structure shown. Active and inactive are the calls of the source. The rule behind the calls is not given here.

Experiments:
[1] = tested on: Haemonchus contortus; assay: Anthelmintic activity against Haemonchus contortus assessed as reduction in L3 larval motility; assay type: functional
[2] = tested on: Heligmosomoides polygyrus; assay: Anthelmintic activity against Heligmosomoides polygyrus infected Swiss-Webster mouse assessed as reduction of worm counts at 25 mg/kg, im; assay type: functional, organism-based; parameters: dose 25 mg/kg
[3] = tested on: Heligmosomoides polygyrus; assay: Anthelmintic activity against Heligmosomoides polygyrus infected Swiss-Webster mouse assessed as reduction of worm counts at 30 mg/kg, im; assay type: functional, organism-based; parameters: dose 30 mg/kg
[4] = tested on: Mus musculus; assay: Toxicity in Swiss-Webster mouse at 50 mg/kg, im; assay type: organism-based; parameters: dose 50 mg/kg, route intramuscular; details: in vivo

SMILES | EC90 [1] | Activity [2] | Activity [3] | Activity [4]
Cc1cc2c3cc(C)c(O)c4c(=O)c5c(c(c6c7c(c(=O)c(c1O)c26)[C@@H](C)O[C@@H](C)C7)c43)C[C@H](C)O[C@@H]5C [SCUTIAQUINONE A] | 9.3 µg/mL (≈ 18.2 µM) | inactive |  | 
Cc1cc2c3c4c(c(O)c5c(=O)c(C)cc(c6c7c(c(=O)c(c1O)c26)[C@@H](C)O[C@@H](C)C7)c53)[C@@H](C)O[C@@H](C)C4 [SCUTIAQUINONE B] | 10.3 µg/mL (≈ 20.2 µM) |  | inactive | Toxic
